# Experimental data published in PMC12351382, “Fibrinography and thrombography (thrombodynamics-4D) in atrial fibrillation assessment of direct oral anticoagulants in geriatrics patients aged 80 years and older receiving direct oral anticoagulant therapy” (Research and Practice in Thrombosis and Haemostasis, 2025).
# Assays:
# [1] = Plasma DOAC concentration in ADAGE patients (chromogenic anti-FXa assay for rivaroxaban and apixaban; anti-FIIa Hemoclot assay for dabigatran); type: in vivo, human; conditions: for DOAC concentration, median (IQR): ADAGE patients ≥80 y, reduced dose: rivaroxaban 15 mg once daily, apixaban 2.5 mg twice daily, dabigatran 110 mg twice daily; for DOAC concentration, range: ADAGE patients, reduced dose (regimens as E1)
# Text: (§1) ADAGE is an academic, prospective, observational multicenter study (NCT 02464488; for details, see Foulon-Pinto et al.). We recruited hospitalized patients from the university hospital’s geriatric department (Assistance Publique-Hôpitaux de Paris, Paris, France). […] The DOAC dose regimen was at the discretion of the physician. Exclusion criteria included any acute, unstable comorbid condition or an estimated life expectancy of a few weeks. Sampling (see below) and last DOAC intake times were recorded on a standardized request form. Sampling time points were at the discretion of the physicians over a period of 20 days following inclusion. Time points were classified according to the time elapsed from the last oral intake (T, hours) for patients receiving rivaroxaban. T1 to T4 corresponded to peak time (Tmax), and T20 to T24 corresponded to trough (Tmin). […] Physicians prospectively collected demographic, clinical, and laboratory data (including creatinine clearance [CrCl] calculated with the Cockcroft–Gault formula). The study was approved by the institutionnel Ethics Committee (Comité consultatif de protection des personnes pour la recherche biomédicale–Île-de-France-6–number 15.074bis). All participants gave written informed consent to participate in the study. Only patients for whom remaining plasma aliquots were available were included in the present study.
# (§2) Tubes were sent to each centre’s laboratory within 2 hours after sampling and immediately double-centrifuged for 15 minutes at 2000 × g at 15 to 22 °C to obtain platelet-poor plasma. Plasma samples (500 μL aliquots) were stored at −80 °C prior to shipment on dry ice for central analysis (Haematology Laboratory, Hôpital Lariboisière). Plasma samples were thawed for 3 to 5 minutes in a 37 °C water bath just before testing.
# Dedicated calibrations and controls were used. The lower limit of quantification was 20 ng/mL for the 3 assays.
# thrombin generation [2] = assay: Thrombodynamics-4D thrombography in plasma samples from ADAGE patients on DOACs; type: in vivo, human; conditions: for ETP (endogenous thrombin potential, ETP_ATG), median (IQR) / ETP (endogenous thrombin potential, ETP_ATG), range / Thrombin peak height (Cmax_ATG), median (IQR) / Thrombin peak height (Cmax_ATG), range / Thrombography Tlag (Lag_ATG), median (IQR) / Thrombography Tlag (Lag_ATG), range / Time to peak (Tmax_ATG), median (IQR) / Time to peak (Tmax_ATG), range: ADAGE patients, reduced dose (regimens as E1)
# Text: as §1, §2
# (§3) The TD-4D assay was performed centrally using the Thrombodynamics analyzer system (Hemacore, Diapharma) with the TD-4D PLS dedicated kit (Hemacore, Diapharma). The system simultaneously measures spatiotemporal parameters of fibrin clot formation (fibrinography) and TG process (thrombography) in a thin layer of unstirred plasma. Briefly, 120 μL of platelet-poor plasma is added to a microcuvette containing corn trypsin inhibitor to prevent contribution of contact phase activation, then 5 μL of phospholipid solution (manufacturer’s reagent) is added. After incubation for 15 minutes at 37 °C in the Thrombodynamics device, the mixture is transferred to a second microcuvette containing calcium ions, and then immediately transferred to the measurement cuvette. Finally, the activator insert, whose surface is coated with immobilized tissue factor (100 pmol/m^2), is then transferred to the cuvette. The process of fibrin clot formation is recorded in a time-lapse video-microscopy mode using a dark-field light scattering method. Simultaneously, the system monitors TG by fluorimetry, based on the ability of thrombin to cleave a fluorogenic substrate, 7-amino-4-methylcoumarin (AMC) bound to a short amino acid sequence (Arg-Gly-Gly). The rate of AMC formation is proportional to local thrombin concentration. The microcuvette is maintained at 37 °C and is illuminated with red (625 nm) or ultra-violet (365 nm) light emitting diodes. Clot growth is detected with red light scattering, while AMC fluorescence is detected with UV. Scattered red light and fluorescence passing through the macro lens are recorded by a charge-coupled device system. Images under red and blue light are acquired once per minute. The whole analysis lasts 1 hour. The Thrombodynamics software (Hemacore, Diapharma) calculates parameters of spatiotemporal dynamics of fibrin clot formation and TG [40, 46]. […]
# fibrin clot formation [3] = assay: Thrombodynamics-4D fibrinography in plasma samples from ADAGE patients on DOACs; type: in vivo, human
# Text: as §1, §2, §3
# fibrin clot formation [4] = assay: Thrombodynamics-4D fibrinography in pooled normal plasma (Cryocheck) spiked with DOACs; type: biochemical, human; conditions: 0 to 1000 nM, mainly at low DOAC concentrations
# Method: (§4) Frozen pooled normal plasma samples (Cryocheck-Cryopep) were spiked with increasing concentrations of DOACs (0-450 ng/mL), as previously described. […] were kindly provided by Bristol Myers Squibb/Pfizer, Bayer Healthcare, and Boehringer Ingelheim, respectively.
# The TD-4D assay was performed centrally using the Thrombodynamics analyzer system (Hemacore, Diapharma) with the TD-4D PLS dedicated kit (Hemacore, Diapharma). The system simultaneously measures spatiotemporal parameters of fibrin clot formation (fibrinography) and TG process (thrombography) in a thin layer of unstirred plasma. Briefly, 120 μL of platelet-poor plasma is added to a microcuvette containing corn trypsin inhibitor to prevent contribution of contact phase activation, then 5 μL of phospholipid solution (manufacturer’s reagent) is added. […] The process of fibrin clot formation is recorded in a time-lapse video-microscopy mode using a dark-field light scattering method. […] Clot growth is detected with red light scattering, while AMC fluorescence is detected with UV. Scattered red light and fluorescence passing through the macro lens are recorded by a charge-coupled device system. […]
# (§5) The following fibrinography parameters were recorded (see Supplementary Table 1): (i) lag time (Tlag, minutes); (ii) initial rate of clot growth (Vi, μm/min); (iii) rate of clot growth (V, μm/min); (iv) clot size (CS, μm) measured at 30 minutes; (v) clot density (D, arbitrary units); (vi) time to spontaneous clotting (Tsp, minutes). The following thrombography parameters (at the near-activator area) were recorded (see Supplementary Table 1): (i) Tlag (minutes); (ii) time to thrombin peak (minutes); (iii) maximal thrombin concentration (ie, thrombin peak height, Cmax_ATG, AU/L); (iv) endogenous thrombin potential (ETP_ATG, AU⋅min/L); (v) stationary amplitude of moving peak of thrombin (Ast, AU/L); (vi) rate of thrombin peak propagation (μm/min; see Supplementary Videos 1–3).
# thrombin generation [5] = assay: Thrombodynamics-4D thrombography in pooled normal plasma (Cryocheck) spiked with DOACs; type: biochemical, human
# Method: as §4
# as §3, with “minute.” for “minute. The whole analysis lasts 1 hour. The Thrombodynamics software (Hemacore, Diapharma) calculates parameters of spatiotemporal dynamics of fibrin clot formation and TG [40, 46].”
# as §5
# [6] = all ADAGE patient samples, any time point and dose
# [7] = univariate analysis, Tmax, line marked Halving
# [8] = univariate analysis, Tmin, line marked Halving
# [9] = Tmax (peak), ADAGE patients, reduced dose (regimens as E1)
# [10] = Tmin (trough), ADAGE patients, reduced dose (regimens as E1)
# [11] = all ADAGE patient samples, Spearman
compound,measurement,setting,value
[H]/N=C(/N)c1ccc(NCc2nc3cc(C(=O)N(CCC(=O)O)c4ccccn4)ccc3n2C)cc1 [Dabigatran],"DOAC concentration, median (IQR)",[1]; Tmax (peak),171 (123-280) ng/mL
same,"DOAC concentration, range",[1]; Tmax (peak),79 to 665 ng/mL
same,"DOAC concentration, median (IQR)",[1]; Tmin (trough),39 (20-70) ng/mL
same,"DOAC concentration, range",[1]; Tmin (trough),20 to 106 ng/mL
same,"DOAC plasma concentration, lower end of range",[1]; [6],< 20 ng/mL
same,"DOAC plasma concentration, upper end of range",[1]; [6],665 ng/mL
same,"ETP (endogenous thrombin potential, ETP_ATG), median (IQR)",thrombin generation [2]; Tmax (peak),1036 (724-1501) AU⋅min/L
same,"ETP (endogenous thrombin potential, ETP_ATG), range",thrombin generation [2]; Tmax (peak),80-2078 AU⋅min/L
same,"Thrombin peak height (Cmax_ATG), median (IQR)",thrombin generation [2]; Tmax (peak),193 (98-243) AU/L
same,"Thrombin peak height (Cmax_ATG), range",thrombin generation [2]; Tmax (peak),8-354 AU/L
same,"Thrombography Tlag (Lag_ATG), median (IQR)",thrombin generation [2]; Tmax (peak),0.6 (0.4-0.8) min
same,"Thrombography Tlag (Lag_ATG), range",thrombin generation [2]; Tmax (peak),0.2 to 1.5 min
same,"Time to peak (Tmax_ATG), median (IQR)",thrombin generation [2]; Tmax (peak),2.6 (2.1-3.1) min
same,"Time to peak (Tmax_ATG), range",thrombin generation [2]; Tmax (peak),1.6 to 4.6 min
same,"ETP (endogenous thrombin potential, ETP_ATG), median (IQR)",thrombin generation [2]; Tmin (trough),1741 (1602-2290) AU⋅min/L
same,"ETP (endogenous thrombin potential, ETP_ATG), range",thrombin generation [2]; Tmin (trough),1111-2715 AU⋅min/L
same,"Thrombin peak height (Cmax_ATG), median (IQR)",thrombin generation [2]; Tmin (trough),349 (279-380) AU/L
same,"Thrombin peak height (Cmax_ATG), range",thrombin generation [2]; Tmin (trough),168-499 AU/L
same,"Thrombography Tlag (Lag_ATG), median (IQR)",thrombin generation [2]; Tmin (trough),0.2 (0.1-0.2) min
same,"Thrombography Tlag (Lag_ATG), range",thrombin generation [2]; Tmin (trough),0.1 to 0.5 min
same,"Time to peak (Tmax_ATG), median (IQR)",thrombin generation [2]; Tmin (trough),1.85 (1.6-2.1) min
same,"Time to peak (Tmax_ATG), range",thrombin generation [2]; Tmin (trough),1.6 to 2.1 min
same,Change of ETP_ATG with increasing DOAC plasma concentrations,thrombin generation [2]; all ADAGE patient samples,decreased
same,Effect of DOAC concentration at Tmax (βC.pic) on thrombography peak height (PH),thrombin generation [2]; [7],≈ 0.4838%
same,Effect of DOAC concentration at Tmin (βC.res) on thrombography peak height (PH),thrombin generation [2]; [8],≈ 0.4447%
same,"CS (clot size at 30 minutes), median (IQR)",fibrin clot formation [3]; [9],1436 (1332-1583) μm
same,"CS (clot size at 30 minutes), range",fibrin clot formation [3]; [9],1273-2125 μm
same,"D (clot density), median (IQR)",fibrin clot formation [3]; [9],"28,810 (27,570-29,170) a.u."
same,"D (clot density), range",fibrin clot formation [3]; [9],"22,740-29,360 a.u."
same,"Fibrinography Tlag (lag time), median (IQR)",fibrin clot formation [3]; [9],1.3 (1.2-2.0) min
same,"Fibrinography Tlag (lag time), range",fibrin clot formation [3]; [9],1.0 to 3.9 min
same,"Initial rate of clot growth (Vi), median (IQR)",fibrin clot formation [3]; [9],60.9 (57.8-65.6) μm/min
same,"Initial rate of clot growth (Vi), range",fibrin clot formation [3]; [9],54.5-74.4 μm/min
same,"Time to Tsp (spontaneous clotting), range",fibrin clot formation [3]; [9],9.8 to 58.5 min
same,"CS (clot size at 30 minutes), median (IQR)",fibrin clot formation [3]; [10],1707 (1634-1904) μm
same,"CS (clot size at 30 minutes), range",fibrin clot formation [3]; [10],1612-2205 μm
same,"D (clot density), median (IQR)",fibrin clot formation [3]; [10],"32,220 (30,160-36,290) a.u."
same,"D (clot density), range",fibrin clot formation [3]; [10],"26,190-39,810 a.u."
same,"Fibrinography Tlag (lag time), median (IQR)",fibrin clot formation [3]; [10],1.0 (0.9-1.1) min
same,"Fibrinography Tlag (lag time), range",fibrin clot formation [3]; [10],0.8 to 1.3 min
same,"Initial rate of clot growth (Vi), median (IQR)",fibrin clot formation [3]; [10],70.3 (66.9-75.1) μm/min
same,"Initial rate of clot growth (Vi), range",fibrin clot formation [3]; [10],57.5-79.5 μm/min
same,"Time to Tsp (spontaneous clotting), median (IQR)",fibrin clot formation [3]; [10],13.7 (11.0-22.2) min
same,"Time to Tsp (spontaneous clotting), range",fibrin clot formation [3]; [10],7.4 to 54.6 min
same,Change of CS (clot size) with increasing concentrations,fibrin clot formation [3]; all ADAGE patient samples,decreased
same,Association of D (clot density) with DOAC concentration,fibrin clot formation [3]; [11],significantly associated
same,Relationship between time to spontaneous clot formation (Tsp) and DOAC levels,fibrin clot formation [3]; [11],significant association
same,Effect of DOAC concentration at Tmax (βC.pic) on fibrinography initial velocity of clot formation,fibrin clot formation [3]; [7],≈ 0.01723%
same,Effect of DOAC concentration at Tmin (βC.res) on fibrinography initial velocity of clot formation,fibrin clot formation [3]; [8],≈ 0.1281%
same,Samples in which spontaneous clotting occurred,fibrin clot formation [4],33%
same,Change of Ast (stationary amplitude of thrombin moving peak) with increasing concentrations,thrombin generation [5],decreased
same,"Effect on Cmax_ATG, ETP_ATG and Ast compared with the other DOACs",thrombin generation [5],more pronounced effect
